Laboratory results published in ChEMBL document CHEMBL3227990, “Aminotetralins as narcotic antagonists. Synthesis and opiate-related activity of 1-phenyl-2-aminotetralin derivatives” (J Med Chem, 1979).

Tests used:
Mus musculus [1] = species: Mus musculus; experiment: Toxicity in mouse assessed as convulsant activity; type: organism-based; details: in vivo
Mus musculus [2] = species: Mus musculus; experiment: Inhibition of morphine-induced analgesia in mouse assessed as dose required for 50% antagonism of analgesia by tail flick test; type: functional
Mus musculus [3] = species: Mus musculus; experiment: Analgesic activity in mouse by hot plate test; type: functional

SMILES | Activity (Mus musculus [1]) | AD50 (Mus musculus [2]) | ED50 (Mus musculus [3]) [mg/kg]
CN(CC1CC1)[C@@H]1CCc2ccccc2[C@@]1(O)c1ccccc1.Cl | Toxic | >=30 mg kg-1 | 
CO[C@@]1(c2ccccc2)c2ccccc2CC[C@H]1N(C)CC1CC1.Cl |  | 33.5 mg/kg | ≥ 50
CCC(=O)O[C@@]1(c2ccccc2)c2ccccc2CC[C@H]1N(C)CC1CC1.Cl |  | >=100 mg kg-1 | 17.8
CN1CC[C@]23c4c5ccc(O)c4O[C@H]2[C@@H](O)C=C[C@H]3[C@H]1C5 [MORPHINE] |  |  | 1.1
